Measured values reported in patent publication US6114310A, “Efflux pump inhibitors” (priority 1998, dated 2000).

System: Pseudomonas aeruginosa PAM1001
Assay: microbe, parasite or virus in culture
Format: cell-based
Experimental: The activity of efflux pump inhibitors (EPI) in combination with fluoroquinolones, such as levofloxacin, is assessed by the checkerboard assay (Antimicrobial Combinations. In Antibiotics in Laboratory Medicine, Ed. Victor Lorian, M. D., Fourth edition, 1996, pp 333-338) using broth microdilution method performed as recommended by the NCCLS (National Committee for Clinical Laboratory Standards (NCCLS). 1997. Methods for Dilution of Antimicrobial Susceptibility Tests for Bacteria That Grow Aerobically--Fourth Edition; Approved Standard. NCCLS Document M7-A4, Vol 17 No.2). The test organism used is Pseudomonas aeruginosa PAM1001.
In this assay, multiple dilutions of two drugs, namely the EPI and levofloxacin, are being tested, alone and in combination, at concentrations equal to, above and below their respective minimal inhibitory concentrations (MICs).
Stock solutions are further diluted, according to the needs of a particular assay, in Mueller Hinton Broth (MHB). Stock solution can be stored at -80° C. Quinolones are solubilized according to the instructions of the manufacturers, at a concentration of 1 mg/ml. They are then further diluted in MHB. Stock solution can be stored at -80° C.
The checkerboard assay is performed in microtiter plates. Levofloxacin is diluted in the x axis, each column containing a single concentration of levofloxacin. The EPI is diluted in the y axis, each row containing an equal concentration of EPI. The result of these manipulations is that each well of the microtiter plate contains a unique combination of concentrations of the two agents. Each EPI are tested independently.
The assay is performed in MHB with a final bacterial inoculum of 5×10^5 CFU/ml (from an early-log phase culture). Microtiter plates are incubated during 20 h at 35° C. and are read using a microtiterplate reader (Molecular Devices) at 650 nm as well as visual observation using a microtiterplate reading mirror.

In the case of “D-Ornithyl-β-(N-phenylpropyl)alanine quinoline-3-amide [Compound 22 (Table 3)]”, the “Levofloxacin MIC Against P. aeruginosa PAM1001 in Presence of Efflux Pump Inhibitor (EPI), Minimum Inhibitory Concentration” value (Table 1, EPI Conc. 0 μg/ml) is reported as 4 µg/mL, the “Levofloxacin MIC Against P. aeruginosa PAM1001 in Presence of Efflux Pump Inhibitor (EPI), Minimum Inhibitory Concentration” value (Table 1, EPI Conc. 0.625 μg/ml) is reported as 4 µg/mL and the “Levofloxacin MIC Against P. aeruginosa PAM1001 in Presence of Efflux Pump Inhibitor (EPI), Minimum Inhibitory Concentration” value (Table 1, EPI Conc. 5 μg/ml) is reported as 2 µg/mL. The “Levofloxacin MIC Against P. aeruginosa PAM1001 in Presence of Efflux Pump Inhibitor (EPI), Minimum Inhibitory Concentration” value (Table 1, EPI Conc. 10 μg/ml) was 1 µg/mL, the “Levofloxacin MIC Against P. aeruginosa PAM1001 in Presence of Efflux Pump Inhibitor (EPI), Minimum Inhibitory Concentration” value (Table 1, EPI Conc. 40 μg/ml) was 0.06 µg/mL and the “Levofloxacin MIC Against P. aeruginosa PAM1001 in Presence of Efflux Pump Inhibitor (EPI), Minimum Inhibitory Concentration” value (Table 1, EPI Conc. […]) was 4 µg/mL. The “Levofloxacin MIC Against P. aeruginosa PAM1001 in Presence of Efflux Pump Inhibitor (EPI), Minimum Inhibitory Concentration” value (Table 1, EPI Conc. μg/ml (number not given; column between 10 and 40 μg/ml)) was 0.50 µg/mL, the “Levofloxacin MIC Against P. aeruginosa PAM1001 in Presence of Efflux Pump Inhibitor (EPI), Minimum Inhibitory Concentration” value (Table 2, EPI Conc. 0 μg/ml) was 4 µg/mL and the “Levofloxacin MIC Against P. aeruginosa PAM1001 in Presence of Efflux Pump Inhibitor (EPI), Minimum Inhibitory Concentration” value (Table 2, EPI Conc. 0.625 μg/ml) was 4 µg/mL. The “Levofloxacin MIC Against P. aeruginosa PAM1001 in Presence of Efflux Pump Inhibitor (EPI), Minimum Inhibitory Concentration” value (Table 2, EPI Conc. 5 μg/ml) was 2 µg/mL, the “Levofloxacin MIC Against P. aeruginosa PAM1001 in Presence of Efflux Pump Inhibitor (EPI), Minimum Inhibitory Concentration” value (Table 2, EPI Conc. 10 μg/ml) was 1 µg/mL and the “Levofloxacin MIC Against P. aeruginosa PAM1001 in Presence of Efflux Pump Inhibitor (EPI), Minimum Inhibitory Concentration” value (Table 2, EPI Conc. 40 μg/ml) was 0.06 µg/mL. The “Levofloxacin MIC Against P. aeruginosa PAM1001 in Presence of Efflux Pump Inhibitor (EPI), Minimum Inhibitory Concentration” value (Table 2, EPI Conc. […]) was 4 µg/mL, the “Levofloxacin MIC Against P. aeruginosa PAM1001 in Presence of Efflux Pump Inhibitor (EPI), Minimum Inhibitory Concentration” value (Table 2, EPI Conc. μg/ml (number not given; column between 10 and 40 μg/ml)) was 0.125 µg/mL and the “Levofloxacin MIC Against P. aeruginosa PAM1001 in Presence of Efflux Pump Inhibitor (EPI), Minimum Inhibitory Concentration” value (Table 3, EPI Conc. 0 μg/ml) was 4 µg/mL. For the same substance, the “Levofloxacin MIC Against P. aeruginosa PAM1001 in Presence of Efflux Pump Inhibitor (EPI), Minimum Inhibitory Concentration” value (Table 3, EPI Conc. 0.625 μg/ml) was 4 µg/mL, the “Levofloxacin MIC Against P. aeruginosa PAM1001 in Presence of Efflux Pump Inhibitor (EPI), Minimum Inhibitory Concentration” value (Table 3, EPI Conc. 5 μg/ml) was 1 µg/mL and the “Levofloxacin MIC Against P. aeruginosa PAM1001 in Presence of Efflux Pump Inhibitor (EPI), Minimum Inhibitory Concentration” value (Table 3, EPI Conc. 10 μg/ml) was 0.50 µg/mL. The “Levofloxacin MIC Against P. aeruginosa PAM1001 in Presence of Efflux Pump Inhibitor (EPI), Minimum Inhibitory Concentration” value (Table 3, EPI Conc. 40 μg/ml) was 0.015 µg/mL, the “Levofloxacin MIC Against P. aeruginosa PAM1001 in Presence of Efflux Pump Inhibitor (EPI), Minimum Inhibitory Concentration” value (Table 3, EPI Conc. μg/ml (number not given; column between 10 and 40 μg/ml)) was 0.25 µg/mL and the “Levofloxacin MIC Against P. aeruginosa PAM1001 in Presence of Efflux Pump Inhibitor (EPI), Minimum Inhibitory Concentration” value (Table 4, EPI Conc. 0 μg/ml) was 4 µg/mL. The “Levofloxacin MIC Against P. aeruginosa PAM1001 in Presence of Efflux Pump Inhibitor (EPI), Minimum Inhibitory Concentration” value (Table 4, EPI Conc. 0.625 μg/ml) was 4 µg/mL, the “Levofloxacin MIC Against P. aeruginosa PAM1001 in Presence of Efflux Pump Inhibitor (EPI), Minimum Inhibitory Concentration” value (Table 4, EPI Conc. 5 μg/ml) was 1 µg/mL and the “Levofloxacin MIC Against P. aeruginosa PAM1001 in Presence of Efflux Pump Inhibitor (EPI), Minimum Inhibitory Concentration” value (Table 4, EPI Conc. 10 μg/ml) was 0.125 µg/mL. The “Levofloxacin MIC Against P. aeruginosa PAM1001 in Presence of Efflux Pump Inhibitor (EPI), Minimum Inhibitory Concentration” value (Table 4, EPI Conc. 40 μg/ml) was 0.125 µg/mL and the “Levofloxacin MIC Against P. aeruginosa PAM1001 in Presence of Efflux Pump Inhibitor (EPI), Minimum Inhibitory Concentration” value (Table 4, EPI Conc. μg/ml (number not given; column between 10 and 40 μg/ml)) was 0.125 µg/mL.
